In general, Tmax refers to the time at which the peak concentration occurs. For orientation: Cmax means the highest concentration seen after dosing. As a reminder, the IC50 is the concentration needed to halve the response being measured. Low readings indicate greater potency, high ones weaker potency. What is called half-life is the time needed for the level to fall by half in the phase considered. Low values mean fast loss, high ones slow loss. The MRT last is the average time that molecules of a dose stay in the body. The bioavailability is the share of a dose that reaches the circulation, judged against a reference dose that is usually intravenous. A low value points to poor availability. One may read the clearance as the volume of plasma or blood freed of the substance per unit of time. A higher clearance goes with a high capacity for elimination. In general, AUC(0-t) refers to exposure summed from dosing to a finite time, without extrapolation to infinity. A low value points to less exposure.

The text below walks through data of ChEMBL document CHEMBL6127116, “Discovery of Potent and Selective Blockers Targeting the Epilepsy-Associated KNa1.1 Channel” (J Med Chem, 2024).

The nature of series [1]: Drug concentration in male ICR mouse brain at 10 mg/kg, po measured after 0.5 hrs by LC-MS/MS analysis. The series is classed as ADME, organism-based. To be noted: read-out: Ct.
Series [2] in a line: Tmax in male ICR mouse at 1 mg/kg, iv administered as single dose measured upto 24 hrs by HPLC analysis. The class given is ADME, organism-based. The following applies: in vivo.
The nature of series [3]: Cmax in male ICR mouse at 1 mg/kg, iv administered as single dose measured upto 24 hrs by HPLC analysis. The series is classed as ADME, organism-based. To be noted: in vivo.
The nature of series [4]: Drug concentration in male ICR mouse plasma at 10 mg/kg, po measured after 2 hrs by LC-MS/MS analysis. The series is classed as ADME, organism-based.
Series [5] addresses Voltage-gated inwardly rectifying potassium channel KCNH2 (Homo sapiens, UniProt Q12809). Nature of the series: Inhibition of human ERG expressed in Xenopus laevis oocytes by two-electrode voltage clamp method. The series is classed as toxicity, cell-based, Oocyte. Background: Two-electrode voltage clamp holds a large cell at a set potential and records current.
Series [6] in a line: Drug concentration in male ICR mouse plasma at 1 mg/kg, iv measured after 0.5 hrs by LC-MS/MS analysis. The series is classed as ADME, organism-based.
Series [7] in a line: Drug concentration in male ICR mouse brain at 1 mg/kg, iv measured after 0.5 hrs by LC-MS/MS analysis. The series is classed as ADME, organism-based. To be noted: read-out: Ct.
Series [8] can be described thus: Drug concentration in male ICR mouse brain at 10 mg/kg, po measured after 2 hrs by LC-MS/MS analysis. The following applies: read-out: Ct. The series is classed as ADME, organism-based.
A short description of series [9]: Half life in male ICR mouse at 10 mg/kg, po administered as single dose measured upto 24 hrs by HPLC analysis. The series is classed as ADME, organism-based. The following applies: in vivo.
Series [10] can be described thus: Drug concentration in male ICR mouse plasma at 1 mg/kg, iv measured after 2 hrs by LC-MS/MS analysis. The series is classed as ADME, organism-based.
Series [11] can be described thus: Half life in male ICR mouse at 1 mg/kg, iv administered as single dose measured upto 24 hrs by HPLC analysis. The series is classed as ADME, organism-based. The following applies: in vivo.
The nature of series [12]: MRT (0 to t) in male ICR mouse at 10 mg/kg, po administered as single dose measured upto 24 hrs by HPLC analysis. The following applies: in vivo. The series is classed as ADME, organism-based.
Series [13] is described as follows: MRT (0 to t) in male ICR mouse at 1 mg/kg, iv administered as single dose measured upto 24 hrs by HPLC analysis. The series is classed as ADME, organism-based. The following applies: in vivo.
Series [14] is described as follows: Oral bioavailability in male ICR mouse at 10 mg/kg administered as single dose measured upto 24 hrs by HPLC analysis. The series is classed as ADME, organism-based. The following applies: in vivo.
Series [15] in a line: Clearance in male ICR mouse at 1 mg/kg, iv administered as single dose measured upto 24 hrs by HPLC analysis. The class given is ADME, organism-based. To be noted: in vivo.
A short description of series [16]: Volume of distribution at steady state in male ICR mouse at 1 mg/kg, iv administered as single dose measured upto 24 hrs by HPLC analysis. The following applies: in vivo, read-out: Vdss. The series is classed as ADME, organism-based.
Series [17] can be described thus: Drug concentration in male ICR mouse plasma at 10 mg/kg, po measured after 0.5 hrs by LC-MS/MS analysis. The series is classed as ADME, organism-based.
Series [18] can be described thus: Cmax in male ICR mouse at 10 mg/kg, po administered as single dose measured upto 24 hrs by HPLC analysis. To be noted: in vivo. The series is classed as ADME, organism-based.
A short description of series [19]: Drug concentration in male ICR mouse brain at 1 mg/kg, iv measured after 2 hrs by LC-MS/MS analysis. The series is classed as ADME, organism-based. The following applies: read-out: Ct.
Series [20] can be described thus: AUC (0 to t) in male ICR mouse at 10 mg/kg, po administered as single dose measured upto 24 hrs by HPLC analysis. The class given is ADME, organism-based. To be noted: in vivo.
Series [21] in a line: AUC (0 to t) in male ICR mouse at 1 mg/kg, iv administered as single dose measured upto 24 hrs by HPLC analysis. The class given is ADME, organism-based. To be noted: in vivo.
Series [22] can be described thus: Tmax in male ICR mouse at 10 mg/kg, po administered as single dose measured upto 24 hrs by HPLC analysis. The class given is ADME, organism-based. The following applies: in vivo.
The subject of the next series is HEK293. Nature of the series: Cytotoxicity against HEK293 cells assessed as reduction in cell viability at 10 uM by CCK8 method relative to control. The following applies: human, hek293, 10 µM. The series is classed as toxicity, cell-based. For orientation: Tetrazolium assays rely on reduction of a dye to a coloured formazan, in cell work by metabolically active cells.

Series [23] in a line: Inhibition of KNa 1.1 (unknown origin). Set-up: species or system Homo sapiens.

Chain of Voltage-gated inwardly rectifying potassium channel KCNH2 (Q12809 whole entry): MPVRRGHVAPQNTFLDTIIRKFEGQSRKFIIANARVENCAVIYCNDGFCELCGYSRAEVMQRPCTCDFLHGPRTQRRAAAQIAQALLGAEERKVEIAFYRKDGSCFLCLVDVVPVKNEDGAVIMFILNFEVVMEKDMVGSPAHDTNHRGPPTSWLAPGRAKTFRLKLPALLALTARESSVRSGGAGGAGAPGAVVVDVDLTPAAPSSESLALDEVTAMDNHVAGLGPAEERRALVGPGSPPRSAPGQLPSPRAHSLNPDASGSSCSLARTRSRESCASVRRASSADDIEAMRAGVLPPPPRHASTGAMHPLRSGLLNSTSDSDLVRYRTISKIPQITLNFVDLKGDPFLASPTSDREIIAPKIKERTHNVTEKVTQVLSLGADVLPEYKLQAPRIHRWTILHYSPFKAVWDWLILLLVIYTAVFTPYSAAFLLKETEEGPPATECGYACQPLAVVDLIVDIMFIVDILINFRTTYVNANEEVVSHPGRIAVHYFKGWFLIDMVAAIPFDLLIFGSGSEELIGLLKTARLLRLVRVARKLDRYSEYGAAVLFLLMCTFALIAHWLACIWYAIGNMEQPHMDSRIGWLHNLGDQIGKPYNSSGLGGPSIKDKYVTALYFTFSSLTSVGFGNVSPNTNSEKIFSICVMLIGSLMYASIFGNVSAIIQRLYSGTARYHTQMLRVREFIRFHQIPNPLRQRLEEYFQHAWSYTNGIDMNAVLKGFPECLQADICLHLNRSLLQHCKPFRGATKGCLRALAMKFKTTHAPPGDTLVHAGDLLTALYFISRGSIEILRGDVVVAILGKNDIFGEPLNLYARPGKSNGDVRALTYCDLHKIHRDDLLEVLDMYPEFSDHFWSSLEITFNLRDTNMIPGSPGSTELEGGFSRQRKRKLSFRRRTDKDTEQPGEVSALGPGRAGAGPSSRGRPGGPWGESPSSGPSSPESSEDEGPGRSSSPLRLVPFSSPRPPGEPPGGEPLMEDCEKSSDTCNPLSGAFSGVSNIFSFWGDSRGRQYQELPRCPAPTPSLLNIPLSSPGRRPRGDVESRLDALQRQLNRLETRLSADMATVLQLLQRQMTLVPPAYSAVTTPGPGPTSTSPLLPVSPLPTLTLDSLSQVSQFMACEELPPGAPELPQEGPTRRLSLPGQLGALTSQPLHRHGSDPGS

With `CN1CCC(NCc2c(OCc3ccc(Br)cc3)ccc3ccccc23)CC1`, the concentration at 0.5 h was 102 ng/mL in series [1], 12.8 ng/mL in series [6], 960 ng/mL in [7] and 32.4 ng/mL in series [17]. Besides, the Tmax in series [2] came out at 4.8 min; in series [22] it was 10.2 min. In addition, the Cmax in [3] was found to be 25.4 ng/mL; in [18], 43.8 ng/mL. The concentration at 2 h is 9.16 ng/mL in series [4], 158 ng/mL in series [8], 4.16 ng/mL in [10] and 702 ng/mL in series [19]. In addition, the IC50 in series [5] came out at 14.9 µM. For the same compound, the figures for the half-life in series [9] and in series [11] were 434 min and 214 min, respectively. Moreover, the MRT last at 24 h in [12] came out at 5.37 h; in [13] it was 7.21 h. This compound displayed a bioavailability in series [14] of 17.8%. The compound further had a clearance in series [15] of 249 mL/min/kg. Besides, the Vd in [16] turned out to be 132 L/kg. The values for the AUC(0-t) at 24 h in [20] and in series [21] were 110 ng·h/mL and 62 ng·h/mL, respectively.
With `CN1CCC(NCc2c(OCc3ccc(F)cc3)ccc3ccccc23)CC1`, the Activity with HEK293 is on record as 53.17%.
Regarding `CCOc1ccccc1S(=O)(=O)N1CC(c2nc(-c3ccsc3)no2)C1`, the IC50 in [23] came out at 2100 nM.
